Earlier results in US20020002154A1, “METHOD AND COMPOSITION FOR TREATMENT OF INFLAMMATORY CONDITIONS” (priority 1998, published 2002).

Test system: acute phase of Crohn's Disease (CD)

## CCCC1O[C@@H]2C[C@H]3[C@@H]4CCC5=CC(=O)C=C[C@]5(C)[C@H]4[C@@H](O)C[C@]3(C)[C@]2(C(=O)CO)O1 (stereo partly shown) [budesonide]
  side-effects compared to prednisone: fewer side-effects
